From patent US8642587B2, “Heterocyclic compounds, pharmaceutical compositions containing them, and their use in therapy” (AbbVie Deutschland GmbH & Co. KG, priority 2009, dated 2014)
Counter-ions that a name gives are not always drawn.

Each compound was assayed against T1, human GlyT1c transporter (Homo sapiens, UniProt P48067) (assay: Radioligand binding assay using recombinant CHO cell membranes expressing human GlyT1). Settings: values given as bounds, read-out: radioligand binding K^iapp.
T1 construct: expressed in transfected cells; host or cells: CHO cells (recombinant; membranes)
T1 sequence (P48067 1-706): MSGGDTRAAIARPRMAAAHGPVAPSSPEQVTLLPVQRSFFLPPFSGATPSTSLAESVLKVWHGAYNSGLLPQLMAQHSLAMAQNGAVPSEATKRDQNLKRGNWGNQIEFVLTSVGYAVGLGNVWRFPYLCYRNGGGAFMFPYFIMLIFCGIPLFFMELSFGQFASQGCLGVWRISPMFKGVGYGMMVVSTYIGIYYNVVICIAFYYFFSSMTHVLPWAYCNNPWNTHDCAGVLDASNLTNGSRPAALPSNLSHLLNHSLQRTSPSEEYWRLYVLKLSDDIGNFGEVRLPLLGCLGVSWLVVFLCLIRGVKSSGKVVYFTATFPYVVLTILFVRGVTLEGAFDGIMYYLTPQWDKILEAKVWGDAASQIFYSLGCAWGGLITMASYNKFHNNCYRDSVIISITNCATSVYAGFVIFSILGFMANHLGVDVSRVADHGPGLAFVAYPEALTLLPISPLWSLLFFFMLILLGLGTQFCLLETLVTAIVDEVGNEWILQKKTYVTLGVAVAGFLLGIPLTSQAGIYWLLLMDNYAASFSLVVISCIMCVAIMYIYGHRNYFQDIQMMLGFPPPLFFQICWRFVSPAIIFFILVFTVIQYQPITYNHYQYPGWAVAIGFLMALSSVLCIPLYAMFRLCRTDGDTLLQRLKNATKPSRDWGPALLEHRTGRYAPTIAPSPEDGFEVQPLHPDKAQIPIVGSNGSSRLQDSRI
Protocol: Radioligand binding to human GlyT1c transporter-expressing membranes was carried out as described in Mezler et al., Molecular Pharmacology 74:1705-1715, 2008.

| Ki [nM] | SMILES |
| --- | --- |
| ≤ 10000 | CCS(=O)(=O)NCCn1cc2c(n1)C(C1(c3ccc(Cl)cc3)CCC1)NCC2 (stereo not drawn) [Example 9.2, N-(2-(7-(1-(4-Chlorophenyl)cyclobutyl)-4,5,6,7-tetrahydro-2H-pyrazolo[3,4-c]pyridin-2-yl)ethyl)ethanesulfonamide hydrochloride] |
| ≤ 1000 | O=S(=O)(CC1CC1)NCc1ncc2c(n1)C(C1(c3ccc(Cl)cc3)CCC1)NCC2 (stereo not drawn) [Example 8.2, N-((8-(1-(4-Chlorophenyl)cyclobutyl)-5,6,7,8-tetrahydropyrido[3,4-d]pyrimidin-2-yl)methyl)-1-cyclopropylmethanesulfonamide hydrochloride] |
| ≥ 10000 | NCCn1cc2c(n1)C(C1(c3ccc(Cl)cc3)CCC1)NCC2 (stereo not drawn) [Example 6, 2-(7-(1-(4-Chlorophenyl)cyclobutyl)-4,5,6,7-tetrahydro-2H-pyrazolo[3,4-c]pyridin-2-yl)ethanamine dihydrochloride] |
| ≤ 1000 | CCCS(=O)(=O)N(C)CCn1cc2c(n1)C(C1(c3ccc(Cl)cc3)CCC1)NCC2 (stereo not drawn) [Example 10, N-(2-(7-(1-(4-chlorophenyl)cyclobutyl)-4,5,6,7-tetrahydro-2H-pyrazolo[3,4-c]pyridin-2-yl)ethyl)-N-methylpropane-1-sulfonamide hydrochloride] |
| ≤ 1000 | O=S(=O)(NCCn1cc2c(n1)C(C1(c3ccc(Cl)cc3)CCC1)NCC2)c1ccccc1 (stereo not drawn) [Example 9.4, N-(2-(7-(1-(4-Chlorophenyl)cyclobutyl)-4,5,6,7-tetrahydro-2H-pyrazolo[3,4-c]pyridin-2-yl)ethyl)benzenesulfonamide hydrochloride] |
| ≤ 1000 | O=S(=O)(CCCF)NCCn1ncc2c1C(C1(c3ccc(Cl)cc3)CCC1)NCC2 (stereo not drawn) [Example 7.3, N-(2-(7-(1-(4-Chlorophenyl)cyclobutyl)-4,5,6,7-tetrahydro-1H-pyrazolo[3,4-c]pyridin-1-yl)ethyl)-3-fluoropropane-1-sulfonamide hydrochloride] |
| ≤ 1000 | CCCS(=O)(=O)NCc1ncc2c(n1)C(C1(c3ccc(Cl)cc3)CCC1)NCC2 (stereo not drawn) [Example 8.1, N-((8-(1-(4-Chlorophenyl)cyclobutyl)-5,6,7,8-tetrahydropyrido[3,4-d]pyrimidin-2-yl)methyl)propane-1-sulfonamide hydrochloride] |
| ≤ 1000 | Cn1cnc(S(=O)(=O)NCCn2ncc3c2C(C2(c4ccc(Cl)cc4)CCC2)NCC3)c1 (stereo not drawn) [Example 7.4, N-(2-(7-(1-(4-Chlorophenyl)cyclobutyl)-4,5,6,7-tetrahydro-1H-pyrazolo[3,4-c]pyridin-1-yl)ethyl)-1-methyl-1H-imidazole-4-sulfonamide hydrochloride] |
| ≤ 1000 | CC(C)CS(=O)(=O)NCCn1cc2c(n1)C(C1(c3ccc(Cl)cc3)CCC1)NCC2 (stereo not drawn) [Example 9.11, N-(2-(7-(1-(4-chlorophenyl)cyclobutyl)-4,5,6,7-tetrahydro-2H-pyrazolo[3,4-c]pyridin-2-yl)ethyl)-2-methylpropane-1-sulfonamide hydrochloride] |
| ≤ 1000 | CS(=O)(=O)NCCn1cc2c(n1)C(C1(c3ccc(Cl)cc3)CCC1)NCC2 (stereo not drawn) [Example 9.3, N-(2-(7-(1-(4-Chlorophenyl)cyclobutyl)-4,5,6,7-tetrahydro-2H-pyrazolo[3,4-c]pyridin-2-yl)ethyl)methanesulfonamide hydrochloride] |
| ≤ 1000 | CCCS(=O)(=O)NCCn1c2c(c3ccccc31)CCNC2C1(c2ccc(Cl)cc2)CCC1 (stereo not drawn) [Example 11, N-(2-{1-[1-(4-Chlorophenyl)cyclobutyl]-1,2,3,4-tetrahydro-9H-b-carbolin-9-yl}ethyl)propane-1-sulfonamide] |
| ≤ 1000 | Cn1cnc(S(=O)(=O)NCc2ncc3c(n2)C(C2(c4ccc(Cl)cc4)CCC2)NCC3)c1 (stereo not drawn) [Example 8.4, N-((8-(1-(4-Chlorophenyl)cyclobutyl)-5,6,7,8-tetrahydropyrido[3,4-d]pyrimidin-2-yl)methyl)-1-methyl-1H-imidazole-4-sulfonamide hydrochloride] |
| ≤ 1000 | O=S(=O)(CCCF)NCc1ncc2c(n1)C(C1(c3ccc(Cl)cc3)CCC1)NCC2 (stereo not drawn) [Example 8.5, N-((8-(1-(4-Chlorophenyl)cyclobutyl)-5,6,7,8-tetrahydropyrido[3,4-d]pyrimidin-2-yl)methyl)-3-fluoropropane-1-sulfonamide hydrochloride] |
| ≤ 1000 | Cn1cc(S(=O)(=O)NCCn2cc3c(n2)C(C2(c4ccc(Cl)cc4)CCC2)NCC3)cn1 (stereo not drawn) [Example 9.6, N-(2-(7-(1-(4-Chlorophenyl)cyclobutyl)-4,5,6,7-tetrahydro-2H-pyrazolo[3,4-c]pyridin-2-yl)-ethyl)-1-methyl-1H-pyrazole-4-sulfonamide hydrochloride] |
| ≤ 1000 | O=S(=O)(NCCn1cc2c(n1)C(C1(c3ccc(Cl)cc3)CCC1)NCC2)C1CCC1 (stereo not drawn) [Example 9.9, N-(2-(7-(1-(4-Chlorophenyl)cyclobutyl)-4,5,6,7-tetrahydro-2H-pyrazolo[3,4-c]pyridin-2-yl)-ethyl)cyclobutanesulfonamide hydrochloride] |
| ≤ 1000 | CCCS(=O)(=O)NCCn1cc2c(n1)C(C1(c3ccc(Cl)cc3)CCC1)NCC2 (stereo not drawn) [Example 9.1, N-(2-(7-(1-(4-Chlorophenyl)cyclobutyl)-4,5,6,7-tetrahydro-2H-pyrazolo[3,4-c]pyridin-2-yl)ethyl)propane-1-sulfonamide hydrochloride] |
| ≤ 1000 | CCCS(=O)(=O)NCCn1ncc2c1C(C1(c3ccc(Cl)cc3)CCC1)NCC2 (stereo not drawn) [Example 7.1, N-(2-(7-(1-(4-Chlorophenyl)cyclobutyl)-4,5,6,7-tetrahydro-1H-pyrazolo[3,4-c]pyridin-1-yl)ethyl)propane-1-sulfonamide hydrochloride] |
| ≤ 1000 | O=S(=O)(NCCn1cc2c(n1)C(C1(c3ccc(Cl)cc3)CCC1)NCC2)c1cccnc1 (stereo not drawn) [Example 9.12, N-(2-(7-(1-(4-Chlorophenyl)cyclobutyl)-4,5,6,7-tetrahydro-2H-pyrazolo[3,4-c]pyridin-2-yl)ethyl)pyridine-3-sulfonamide dihydrochloride] |
| ≤ 1000 | O=S(=O)(CCCF)NCCn1cc2c(n1)C(C1(c3ccc(Cl)cc3)CCC1)NCC2 (stereo not drawn) [Example 9.8, N-(2-(7-(1-(4-Chlorophenyl)cyclobutyl)-4,5,6,7-tetrahydro-2H-pyrazolo[3,4-c]pyridin-2-yl)ethyl)-3-fluoropropane-1-sulfonamide hydrochloride] |
| ≤ 10000 | Cn1cc(S(=O)(=O)NCCn2ncc3c2C(C2(c4ccc(Cl)cc4)CCC2)NCC3)cn1 (stereo not drawn) [Example 7.2, N-(2-(7-(1-(4-Chlorophenyl)cyclobutyl)-4,5,6,7-tetrahydro-1H-pyrazolo[3,4-c]pyridin-1-yl)ethyl)-1-methyl-1H-pyrazole-4-sulfonamide hydrochloride] |
| ≤ 1000 | Cn1cnc(S(=O)(=O)NCCn2cc3c(n2)C(C2(c4ccc(Cl)cc4)CCC2)NCC3)c1 (stereo not drawn) [Example 9.7, N-(2-(7-(1-(4-Chlorophenyl)cyclobutyl)-4,5,6,7-tetrahydro-2H-pyrazolo[3,4-c]pyridin-2-yl)ethyl)-1-methyl-1H-imidazole-4-sulfonamide hydrochloride] |
| ≤ 1000 | O=S(=O)(CC1CC1)NCCn1cc2c(n1)C(C1(c3ccc(Cl)cc3)CCC1)NCC2 (stereo not drawn) [Example 9.10, N-(2-(7-(1-(4-Chlorophenyl)cyclobutyl)-4,5,6,7-tetrahydro-2H-pyrazolo[3,4-c]pyridin-2-yl)-ethyl)-1-cyclopropylmethanesulfonamide hydrochloride] |
| ≤ 1000 | Cn1cc(S(=O)(=O)NCc2ncc3c(n2)C(C2(c4ccc(Cl)cc4)CCC2)NCC3)cn1 (stereo not drawn) [Example 8.3, N-((8-(1-(4-Chlorophenyl)cyclobutyl)-5,6,7,8-tetrahydropyrido[3,4-d]pyrimidin-2-yl)methyl)-1-methyl-1H-pyrazole-4-sulfonamide hydrochloride] |
| ≤ 1000 | CCCCS(=O)(=O)NCCn1cc2c(n1)C(C1(c3ccc(Cl)cc3)CCC1)NCC2 (stereo not drawn) [Example 9.5, N-(2-(7-(1-(4-Chlorophenyl)cyclobutyl)-4,5,6,7-tetrahydro-2H-pyrazolo[3,4-c]pyridin-2-yl)-ethyl)butane-1-sulfonamide hydrochloride] |
